From article PMC8273887 (Journal of Medicinal Chemistry, 2021)

Key:
[1] = Stability in simulated gastric fluid (SGF); assay type: in vitro ADME, porcine; details: simulated gastric fluid (SGF) with pepsin, pH 1.3, 15 μL of 1 mM peptide stock in 285 μL SGF, 37 °C, samples 0 min-24 h quenched with 0.2 M Na2CO3, RP-HPLC/LC-MS peak area as % of time 0, exponential one-phase decay fit, read-out: t1/2 in SGF
Method: (§1) We exposed TFF3(C^57Acm) and TFF3 homodimer to simulated gastric fluid (SGF, containing pepsin, pH 1.3) and simulated intestinal fluid (SIF, containing pancreatic enzymes, pH 6.8), and monitored the mixture over 24 h by analytical RP-HPLC and MS. The N- and C-termini of TFF3 and its homodimer were readily truncated in both SGF and SIF (Figure 4A,B). In SGF, TFF3 was cleaved at Leu^6/Ser^7 followed by cleavage at Glu^54/Ala^55 (t1/2 < 5 min). In SIF, TFF3 was cleaved first at Thr^58/Phe^59 followed by cleavage at Leu^6/Ser^7, Glu^56/Cys^57, and Ala^55/Glu^56 (t1/2 < 5 min). TFF3 homodimer, in both SGF (t1/2 ∼ 40 min) and SIF (t1/2 < 5 min), was first broken down to monomeric TFF3 through simultaneous cleavage at Leu^6 and Glu^54 or Ala^55, eventually leading to the same metabolites as TFF3 (Figure 4B).
(§2) Simulated gastric fluid (SGF) was prepared by dissolving 20 mg of NaCl and 8 mg of pepsin in 70 μL of concentrated HCl (32%), and the volume was diluted to 10 mL with Milli-Q water (pH 1.3).[76],[77] Simulated intestinal fluid (SIF) was prepared by dissolving 68 mg of KH2PO4 in 500 μL of Milli-Q water followed by the addition of 800 μL of 0.2 M NaOH and 100 mg of porcine pancreatin, and the volume was adjusted to 10 mL with Milli-Q water (pH 6.8).[76],[77] Peptide stock solution (1 mM; 15 μL) was added to SGF (285 μL) or SIF (285 μL) and incubated at 37 °C. Samples (30 μL) from SGF and SIF were taken at 0, 5, 15, and 30 min and 1, 2, 4, 8, and 24 h timepoints and subsequently quenched with 30 μL of 0.2 M Na2CO3 (SGF) or 30 μL of 5% aqueous TFA (SIF). The samples were analyzed by analytical RP-HPLC (30 μL) and/or LC-MS (20 μL). The amount of peptide remaining was determined by measuring the peak area and expressing it as a % of the peak area at time 0. Peptide half-life (t1/2) was determined from the peptide degradation profiles using an exponential one-phase decay fit in Prism (version 7, GraphPad, La Jolla). LC-MS analysis was performed in a Q-Star Pulsar mass spectrometer (SCIEX, Ontario, Canada), and the raw data spectra were processed using the peptide reconstruction tool in the BioAnalyst software to identify the mass of the metabolites. The stability of the disulfide bonds was assessed through incubation of the peptides (10 μM) with 10 equiv of reduced glutathione (GSH; 100 μM) in sodium phosphate (50 mM) buffer at pH 7.2. Samples were taken at timepoints 0, 4, 8, and 24 h, quenched by adding 10% TFA, and analyzed by analytical RP-HPLC using an analytical C3 column (Agilent Zorbax SB-C3, 5 μm, 2.1 mm × 250 mm, 300 Å).

[2] = Stability in simulated intestinal fluid (SIF); assay type: in vitro ADME; details: pig, simulated intestinal fluid (SIF) with porcine pancreatin, pH 6.8, 15 μL of 1 mM peptide stock in 285 μL SIF, 37 °C, samples 0 min-24 h quenched with 5% aqueous TFA, RP-HPLC/LC-MS peak area as % of time 0, exponential one-phase decay fit, read-out: t1/2 in SIF
Method: as §1, §2

human erythrocytes = assay: Hemolysis analysis; assay type: cell-based; details: 1 h, 37 °C, absorbance 405 nm, 0.2–25 μM final concentration, two independent experiments
Text: Considering the therapeutic potential of TFF3, it was important to determine any cytotoxic and hemolytic effects early on to avoid problems in later stages of drug development. We therefore assessed cytotoxicity on HEK-293 cells and hemolytic effects in human erythrocytes. We treated the cells with TFF3(C^57Acm) and TFF3 homodimer and used resazurin, a blue dye that produces strong fluorescence when reduced by living cells, as the readout of the number of viable cells.[60] In the hemolytic assay, we evaluated hemoglobin release, an indicator of erythrocyte lysis, upon exposure to the peptides.
Monomeric and homodimeric TFF3 were serially diluted twofold in 0.9% NaCl and seeded (25 μL) in a 384-well polypropylene plate (0.2–25 μM final concentration). […] The cells were counted using a Neubauer hemocytometer and then diluted to 1 × 10^8/mL in 0.9% NaCl. […] Following incubation, the plates were centrifuged at 1000g for 10 min to pellet cells and debris and then 25 μL of the supernatant was transferred into a 384-well flat-bottom PS plate and absorbance (Abs) was read at 405 nm using a Tecan M1000 Pro monochromator plate reader. Percent hemolysis was calculated using the following equation: Hemolysis (%) = (Abssample – Absnegative/Abspositive – Absnegative) × 100. […]

CXCR4 = target: T1, CXCR4 (Homo sapiens, UniProt P61073); assay: Inositol 1 phosphate (IP1) accumulation assay (HTRF) in COS-7 cells transfected with CXCR4; assay type: cell-based; details: 5 min preincubation with peptide (1 or 10 μM final), then CXCL12 10^-12 to 10^-5 M; COS-7/CXCR4; IP1 HTRF
T1 construct: expressed in transfected cells; host or cells: COS-7 (African green monkey), transient co-transfection with GαΔ6qi4myr
Text: CXCR4 is a member of the G protein-coupled receptor (GPCR) family[58] and proposed as a target receptor for TFF3 to mediate wound healing.[30],[39] We therefore pharmacologically characterized TFF3(C^57Acm) and TFF3 homodimer at CXCR4. We used a chimeric Gαiq protein to switch the pathway to the Gαq signaling, which leads to the activation of the phospholipase and allows measurement of CXCR4 activation through the production of inositol 1 phosphate (IP1).[61]−[63] We measured IP1 accumulation upon stimulation with TFF3(C^57Acm) and TFF3 homodimer in fibroblast-like COS-7 cells transiently transfected with CXCR4.[58] This is a competitive immunoassay, based on the HTRF technology, where native IP1 produced by cells compete with labeled IP1 (acceptor) for binding to anti-IP1-cryptate (donor). The specific signal (i.e., Förster resonance energy transfer, FRET) is inversely proportional to the concentration of IP1 in the sample. The calculation of the fluorescence ratio eliminates possible medium interferences.[64]
COS-7 cells (fibroblast-like cells from African green monkey) were transiently co-transfected with the CXCR4 C-terminally fused to eYFP in pVitro2 vector and the untagged chimeric G protein GαΔ6qi4myr in pcDNA3.1 plasmid using Metafectene Pro according to manufacturer’s protocol. The cells were cultured in DMEM with higher glucose and supplemented with 10% FCS without any antibiotics at 37 °C and 5% CO2 in 95% humidity. Cisbio IP-One Gq assay kit was used according to previous description with minor modifications to measure activity.[80] Briefly, a standard curve was prepared in HBSS (Hanks’ balanced salt solution) with 20 mM LiCl to determine the linear range of the assay and 10 000 cells/well were cultured overnight in a 384-well flat white plate (Greiner Bio-one GmbH, Frickenhausen, Germany). TFF3 and its homodimer as well as CXCL12 were diluted in HBSS containing 20 mM LiCl. Stimulation was carried out for 1 h in triplicate at 37 °C. Subsequently, 3 μL of IP1-d2 and 3 μL of Ab-cryptate in lysis buffer were added to the wells and incubated on a tumbler for 60 min at 25 °C. Fluorescence was then measured at 620 and 665 nm and the HTRF (homogeneous time-resolved fluorescence) ratio (665/620 nm) was calculated. Data analysis was performed with Prism (version 7, GraphPad, La Jolla). Tested compounds were normalized to CXCL12 wild type, with the highest HTRF ratio set to 0% and the lowest HTRF ratio set to 100% response. […] The final concentration range of 10^–12 to 10^–5 M to CXCL12 and 1 or 10 μM to TFF3(C^57Acm) and TFF3 homodimer was achieved by adding the compounds from a threefold concentrated stock solution.

[3] = target: chemokine receptor type 4 (CXCR4), C-terminally fused to eYFP (UniProt P61073)
Sequence of chemokine receptor type 4 (CXCR4), C-terminally fused to eYFP (P61073 whole entry, the tested form may be a part): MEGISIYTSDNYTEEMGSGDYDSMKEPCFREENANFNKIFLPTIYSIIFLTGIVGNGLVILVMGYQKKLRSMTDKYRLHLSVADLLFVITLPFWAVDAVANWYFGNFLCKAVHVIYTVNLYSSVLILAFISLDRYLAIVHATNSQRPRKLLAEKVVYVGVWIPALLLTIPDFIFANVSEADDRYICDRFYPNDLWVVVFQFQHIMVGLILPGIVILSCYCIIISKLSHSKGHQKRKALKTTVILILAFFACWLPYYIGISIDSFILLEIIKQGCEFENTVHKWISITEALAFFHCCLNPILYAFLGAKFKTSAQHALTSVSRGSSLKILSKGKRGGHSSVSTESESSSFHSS

Sequence of C-X-C motif chemokine 12 (CXCL12), recombinant human, with an additional N-terminal methionine (P48061 other isoform, or with tags, fused parts or gaps): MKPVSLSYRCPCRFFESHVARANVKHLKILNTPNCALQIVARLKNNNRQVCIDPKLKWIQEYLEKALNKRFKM
T1 sequence (P61073 whole entry): as the sequence (P61073 whole entry, the tested form may be a part) above

EC50 of IP1 accumulation (HTRF, IP-One Gq kit) in COS-7 cells transfected with CXCR4 and a chimeric G protein; CXCL12 10^-12 to 10^-5 M [3] [nM]	Compound	half-life at 50 μM [1] [min]	half-life at 50 μM [2] [min]	concentration up to which no hemolytic effect was displayed (human erythrocytes) [µM]	effect on the EC50 of CXCL12 at CXCR4 (antagonism) (CXCR4)
–	CC[C@H](C)[C@@H]1NC(=O)[C@H](CCCNC(=N)N)NC(=O)[C@H](CO)NC(=O)[C@H](CC(=O)O)NC(=O)[C@H](Cc2ccccc2)NC(=O)[C@@H]2CSSC[C@H](NC(=O)[C@H](CCC(N)=O)NC(=O)[C@H](CC(N)=O)NC(=O)[C@H](C)NC(=O)[C@H](CO)NC(=O)[C@H](CC(C)C)NC(=O)CNC(=O)[C@@H](NC(=O)[C@H](Cc3ccc(O)cc3)NC(=O)[C@H](CCC(=O)O)NC(=O)[C@@H](N)CCC(=O)O)C(C)C)C(=O)N[C@@H](C)C(=O)N[C@@H](C(C)C)C(=O)N3CCC[C@H]3C(=O)N[C@@H](C)C(=O)N[C@@H](CCCCN)C(=O)N[C@@H](CC(=O)O)C(=O)N[C@@H](CCCNC(=N)N)C(=O)N[C@@H](C(C)C)C(=O)N[C@@H](CC(=O)O)C(=O)N[C@H]3CSSC[C@H](NC(=O)CNC(=O)[C@H](CCCNC(=N)N)NC(=O)[C@H](CC(N)=O)NC(=O)[C@H](CC(N)=O)NC(=O)[C@H](CSSC[C@@H](C(=O)N[C@@H](Cc4ccccc4)C(=O)N[C@@H](CCCCN)C(=O)N4CCC[C@H]4C(=O)N[C@@H](CC(C)C)C(=O)N[C@@H](CCC(N)=O)C(=O)N[C@@H](CCC(=O)O)C(=O)N[C@@H](C)C(=O)N[C@@H](CCC(=O)O)C(=O)N[C@@H](CSSC[C@H](NC(=O)[C@H](CCC(=O)O)NC(=O)[C@H](C)NC(=O)[C@H](CCC(=O)O)NC(=O)[C@H](CCC(N)=O)NC(=O)[C@H](CC(C)C)NC(=O)[C@@H]4CCCN4C(=O)[C@H](CCCCN)NC(=O)[C@H](Cc4ccccc4)NC(=O)[C@@H]4CSSC[C@@H]5NC(=O)[C@H](CCC(=O)O)NC(=O)[C@H](CCCCN)NC(=O)[C@@H]6CCCN6C(=O)[C@H]([C@@H](C)O)NC(=O)[C@H](C(C)C)NC(=O)[C@H](Cc6c[nH]cn6)NC(=O)[C@@H]6CCCN6C(=O)[C@H](Cc6ccc(O)cc6)NC(=O)CNC(=O)[C@@H]6CSSC[C@H](NC(=O)CNC(=O)[C@H](CCCNC(=N)N)NC(=O)[C@H](CC(N)=O)NC(=O)[C@H](CC(N)=O)NC5=O)C(=O)N[C@@H](CSSC[C@H](NC(=O)[C@H](CCC(N)=O)NC(=O)[C@H](CC(N)=O)NC(=O)[C@H](C)NC(=O)[C@H](CO)NC(=O)[C@H](CC(C)C)NC(=O)CNC(=O)[C@@H](NC(=O)[C@H](Cc5ccc(O)cc5)NC(=O)[C@H](CCC(=O)O)NC(=O)[C@@H](N)CCC(=O)O)C(C)C)C(=O)N[C@@H](C)C(=O)N[C@@H](C(C)C)C(=O)N5CCC[C@H]5C(=O)N[C@@H](C)C(=O)N[C@@H](CCCCN)C(=O)N[C@@H](CC(=O)O)C(=O)N[C@@H](CCCNC(=N)N)C(=O)N[C@@H](C(C)C)C(=O)N[C@@H](CC(=O)O)C(=O)N6)C(=O)N[C@@H](Cc5ccccc5)C(=O)N[C@@H](CC(=O)O)C(=O)N[C@@H](CO)C(=O)N[C@@H](CCCNC(=N)N)C(=O)N[C@@H]([C@@H](C)CC)C(=O)N5CCC[C@H]5C(=O)NCC(=O)N[C@@H](C(C)C)C(=O)N5CCC[C@H]5C(=O)N[C@@H](Cc5c[nH]c6ccccc56)C(=O)N4)C(=O)N[C@H](C(=O)N[C@@H](Cc4ccccc4)C(=O)O)[C@@H](C)O)C(=O)N[C@H](C(=O)N[C@@H](Cc4ccccc4)C(=O)O)[C@@H](C)O)NC(=O)[C@H](Cc4c[nH]c5ccccc45)NC(=O)[C@@H]4CCCN4C(=O)[C@H](C(C)C)NC(=O)CNC(=O)[C@@H]4CCCN4C1=O)NC(=O)[C@H](CCC(=O)O)NC(=O)[C@H](CCCCN)NC(=O)[C@@H]1CCCN1C(=O)[C@H]([C@@H](C)O)NC(=O)[C@H](C(C)C)NC(=O)[C@H](Cc1c[nH]cn1)NC(=O)[C@@H]1CCCN1C(=O)[C@H](Cc1ccc(O)cc1)NC(=O)CNC3=O)C(=O)N2 [TFF3 homodimer]	~40	< 5	> 25	not affected
5.9	C-X-C motif chemokine 12 (CXCL12), recombinant human, with an additional N-terminal methionine (from UniProt P48061 22-93) (ligand)	–	–	–	–
